Source: patent publication US9914730B2, “Azaquinazoline inhibitors of Atypical protein Kinase C” (Ignyta, Inc., priority 2012, dated 2018)

Each compound was assayed against T1, full-length human PKCι (Homo sapiens, UniProt P41743) (assay: PKCι IC50 IMAP assay, full-length PKCι at 150 μM ATP). Settings: read-out: IC50 in IMAP assay against full length PKCi at 150 μM ATP.
T1 construct: Recombinant, full-length human PKCι expressed in Sf21 insect cells is also commercially available; purchased; host or cells: Sf21 insect cells
T1 sequence (P41743 1-596): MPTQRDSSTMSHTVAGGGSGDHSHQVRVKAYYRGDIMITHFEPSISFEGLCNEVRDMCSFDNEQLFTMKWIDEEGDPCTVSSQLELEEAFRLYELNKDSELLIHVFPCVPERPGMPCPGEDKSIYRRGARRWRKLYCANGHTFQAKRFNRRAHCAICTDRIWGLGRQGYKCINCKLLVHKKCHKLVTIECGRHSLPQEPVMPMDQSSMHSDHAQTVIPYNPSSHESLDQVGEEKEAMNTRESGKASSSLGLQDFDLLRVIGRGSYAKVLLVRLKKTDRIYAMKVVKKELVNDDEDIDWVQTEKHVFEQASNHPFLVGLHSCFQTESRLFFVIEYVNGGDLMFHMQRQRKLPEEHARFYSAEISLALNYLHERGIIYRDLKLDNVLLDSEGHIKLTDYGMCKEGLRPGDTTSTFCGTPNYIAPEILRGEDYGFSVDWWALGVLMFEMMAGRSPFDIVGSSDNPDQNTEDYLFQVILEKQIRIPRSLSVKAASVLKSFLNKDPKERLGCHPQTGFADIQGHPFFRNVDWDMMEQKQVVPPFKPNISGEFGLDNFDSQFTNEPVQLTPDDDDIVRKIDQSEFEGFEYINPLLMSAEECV
Type: biochemical
Procedure, shortened: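 IC50 from IMAP FP (ex 485/em 530 nm) after 60 min room-temperature reaction in pH 7.5 tris buffer with 9 mM MgCl2 and 0.9 mM DTT. Enzyme: full-length Sf21-expressed PKCι (~15 pM); ATP 150 μM, five times KM^APP; FAM-labelled peptide 100 nM; DMSO 4%.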
CN(C)CCOc1nc(-c2ccnc(Nc3c(F)cccc3F)c2)nc2cncc(C3CC3)c12 [Example 826, {4-[5-Cyclopropyl-4-(2-dimethylamino-ethoxy)-pyrido[3,4-d]pyrimidin-2-yl]-pyridin-2-yl}-(2,6-difluoro-phenyl)-amine] was tested, and the IC50 was 100 to 1000 nM. FC(F)(F)c1ccc(Nc2cc(-c3nc(N4CCNCC4)c4c(C5CC5)cncc4n3)ccn2)nc1 [Example 827, [4-(5-Cyclopropyl-4-piperazin-1-yl-pyrido[3,4-d]pyrimidin-2-yl)-pyridin-2-yl]-(5-trifluoromethyl-pyridin-2-yl)-amine] was tested, and the IC50 was < 100 nM. C[C@@H]1CN(c2nc(-c3ccnc(Nc4nc(F)c(F)cc4F)c3)nc3cncc(C4CC4)c23)C[C@H](C)N1 [Example 828, {4-[5-Cyclopropyl-4-((3R,5S)-3,5-dimethyl-piperazin-1-yl)-pyrido[3,4-d]pyrimidin-2-yl]-pyridin-2-yl}-(3,5,6-trifluoro-pyridin-2-yl)-amine] was tested, and the IC50 was < 100 nM. For Fc1cccc(F)c1Nc1cc(-c2nc(N3CCNC4(CC4)C3)c3c(C4CC4)cncc3n2)ccn1 [Example 829, {4-[5-Cyclopropyl-4-(4,7-diaza-spiro[2.5]oct-7-yl)-pyrido[3,4-d]pyrimidin-2-yl]-pyridin-2-yl}-(2,6-difluoro-phenyl)-amine], the IC50 was < 100 nM. Compound C[C@H]1CN(c2nc(-c3ccnc(Nc4nc(F)c(F)cc4F)c3)nc3cncc(C4CC4)c23)CCN1 [Example 830, {4-[5-Cyclopropyl-4-((S)-3-methyl-piperazin-1-yl)-pyrido[3,4-d]pyrimidin-2-yl]-pyridin-2-yl}-(3,5,6-trifluoro-pyridin-2-yl)-amine] has an IC50 of 1000 to 10000 nM. In the case of c1cc(-c2nc(N3CCNCC3)c3c(C4CC4)cncc3n2)cc(Nc2nc3cc(C4CC4)ccn3n2)n1 [Example 831, [4-(5-Cyclopropyl-4-piperazin-1-yl-pyrido[3,4-d]pyrimidin-2-yl)-pyridin-2-yl]-(7-cyclopropyl-[1,2,4]triazolo[1,5-a]pyridin-2-yl)-amine], the IC50 is reported as < 100 nM. For Cn1ccc(Nc2cc(-c3nc(N4CCNC(C)(C)C4)c4c(C5CC5)cncc4n3)ccn2)n1 [Example 832, {4-[5-Cyclopropyl-4-(3,3-dimethyl-piperazin-1-yl)-pyrido[3,4-d]pyrimidin-2-yl]-pyridin-2-yl}-(1-methyl-1H-pyrazol-3-yl)-amine], the IC50 was < 100 nM. With CN(c1nc(-c2ccnc(Nc3c(F)cccc3F)c2)nc2cncc(C3CC3)c12)C1CCNCC1 [Example 833, {5-Cyclopropyl-2-[2-(2,6-difluoro-phenylamino)-pyridin-4-yl]-pyrido[3,4-d]pyrimidin-4-yl}-methyl-piperidin-4-yl-amine] the IC50 was < 100 nM. OC1CCN(c2nc(-c3ccnc(Nc4cccc(N5CCOCC5)c4)c3)nc3cncc(C4CC4)c23)CC1 [Example 834, 1-{5-Cyclopropyl-2-[2-(3-morpholin-4-yl-phenylamino)-pyridin-4-yl]-pyrido[3,4-d]pyrimidin-4-yl}-piperidin-4-ol] was tested, and the IC50 was < 100 nM. In the case of C[C@@H](Nc1cc(-c2nc(N3CCNC(C)(C)C3)c3c(C4CC4)cncc3n2)ccn1)C1CCCCC1 [Example 835, ((R)-1-Cyclohexyl-ethyl)-{4-[5-cyclopropyl-4-(3,3-dimethyl-piperazin-1-yl)-pyrido[3,4-d]pyrimidin-2-yl]-pyridin-2-yl}-amine], the IC50 is reported as < 100 nM. For Fc1cc(F)nc(Nc2cc(-c3nc(N4CCNCC4)c4c(C5CC5)cncc4n3)ccn2)c1 [Example 836, [4-(5-Cyclopropyl-4-piperazin-1-yl-pyrido[3,4-d]pyrimidin-2-yl)-pyridin-2-yl]-(4,6-difluoro-pyridin-2-yl)-amine], the IC50 was < 100 nM. With Fc1cccc(F)c1Nc1cc(-c2nc(NC3CCNC3)c3c(C4CC4)cncc3n2)ccn1 (stereo not drawn) [Example 837, {5-Cyclopropyl-2-[2-(2,6-difluoro-phenylamino)-pyridin-4-yl]-pyrido[3,4-d]pyrimidin-4-yl}-pyrrolidin-3-yl-amine] the IC50 was < 100 nM. In the case of CC1(C)CN(c2nc(-c3ccnc(Nc4nc(F)ccc4F)c3)nc3cncc(C4CC4)c23)CCN1 [Example 838, {4-[5-Cyclopropyl-4-(3,3-dimethyl-piperazin-1-yl)-pyrido[3,4-d]pyrimidin-2-yl]-pyridin-2-yl}-(3,6-difluoro-pyridin-2-yl)-amine], the IC50 is reported as < 100 nM. With C[C@H]1CN(c2nc(-c3ccnc(Nc4ccc(C(F)(F)F)cn4)c3)nc3cncc(C4CC4)c23)CCN1 [Example 839, {4-[5-Cyclopropyl-4-((S)-3-methyl-piperazin-1-yl)-pyrido[3,4-d]pyrimidin-2-yl]-pyridin-2-yl}-(5-trifluoromethyl-pyridin-2-yl)-amine] the IC50 was < 100 nM. CC1(C)CN(c2nc(-c3ccnc(Nc4ncccc4F)c3)nc3cncc(C4CC4)c23)CCN1 [Example 840, {4-[5-Cyclopropyl-4-(3,3-dimethyl-piperazin-1-yl)-pyrido[3,4-d]pyrimidin-2-yl]-pyridin-2-yl}-(3-fluoro-pyridin-2-yl)-amine] was tested, and the IC50 was < 100 nM. In the case of CNC(=O)c1ccc(Nc2cc(-c3nc(N4CCNCC4)c4c(C5CC5)cncc4n3)ccn2)cc1 [Example 841, -[4-(5-Cyclopropyl-4-piperazin-1-yl-pyrido[3,4-d]pyrimidin-2-yl)-pyridin-2-ylamino]-N-methyl-benzamide], the IC50 is reported as < 100 nM. With Fc1cccc(F)c1Nc1cc(-c2nc(NC3CCCNC3)c3c(C4CC4)cncc3n2)ccn1 (stereo not drawn) [Example 842, {5-Cyclopropyl-2-[2-(2,6-difluoro-phenylamino)-pyridin-4-yl]-pyrido[3,4-d]pyrimidin-4-yl}-piperidin-3-yl-amine] the IC50 was < 100 nM. With C[C@@H]1CN(c2nc(-c3ccnc(Nc4c(F)cccc4F)c3)nc3cncc(C4CC4)c23)C[C@H](C)N1 [Example 843, {4-[5-Cyclopropyl-4-((3R,5S)-3,5-dimethyl-piperazin-1-yl)-pyrido[3,4-d]pyrimidin-2-yl]-pyridin-2-yl}-(2,6-difluoro-phenyl)-amine] the IC50 was < 100 nM. NC(=O)c1ccc(Nc2cc(-c3nc(N4CCNCC4)c4c(C5CC5)cncc4n3)ccn2)nc1 [Example 844, 6-[4-(5-Cyclopropyl-4-piperazin-1-yl-pyrido[3,4-d]pyrimidin-2-yl)-pyridin-2-ylamino]-nicotinamide] was tested, and the IC50 was < 100 nM. For CC1(C)CN(c2nc(-c3ccnc(Nc4nc(F)cc(F)c4F)c3)nc3cncc(C4CC4)c23)CCN1 [Example 845, {4-[5-Cyclopropyl-4-(3,3-dimethyl-piperazin-1-yl)-pyrido[3,4-d]pyrimidin-2-yl]-pyridin-2-yl}-(3,4,6-trifluoro-pyridin-2-yl)-amine], the IC50 was < 100 nM. With c1cc(C2CC2)c2nc(Nc3cc(-c4nc(N5CCNCC5)c5c(C6CC6)cncc5n4)ccn3)nn2c1 [Example 846, [4-(5-Cyclopropyl-4-piperazin-1-yl-pyrido[3,4-d]pyrimidin-2-yl)-pyridin-2-yl]-(8-cyclopropyl-[1,2,4]triazolo[1,5-a]pyridin-2-yl)-amine] the IC50 was < 100 nM. c1ccc(C[C@H]2CN(c3nc(N4CCOCC4)nc4cnccc34)CCN2)cc1 [Example 1000, 4-((S)-3-Benzyl-piperazin-1-yl)-2-morpholin-4-yl-pyrido[3,4-d]pyrimidine] gave an IC50 of 1000 to 10000 nM. With c1ccc(CC2CN(c3nc(N[C@@H]4CCNC4)c4ccncc4n3)CCO2)cc1 (stereo partly drawn) [Example 1001, [2-(2-Benzyl-morpholin-4-yl)-pyrido[3,4-d]pyrimidin-4-yl]-(R)-pyrrolidin-3-yl-amine] the IC50 was 1000 to 10000 nM. COc1cncc2nc(N3CCOCC3)nc(NC[C@@H](N)Cc3ccccc3)c12 [Example 1002, (S)-N^1-(5-Methoxy-2-morpholin-4-yl-pyrido[3,4-d]pyrimidin-4-yl)-3-phenyl-propane-1,2-diamine] was tested, and the IC50 was < 100 nM. In the case of COc1cncc2nc(N3CCOCC3)nc(N3CCNCC3)c12 [Example 1003, 5-Methoxy-2-morpholin-4-yl-4-piperazin-1-yl-pyrido[3,4-d]pyrimidine], the IC50 is reported as 100 to 1000 nM. With COc1cncc2nc(N3CCOC(COc4ccccc4)C3)nc(N3CCNCC3)c12 (stereo not drawn) [Example 1004, 5-Methoxy-2-(2-phenoxymethyl-morpholin-4-yl)-4-piperazin-1-yl-pyrido[3,4-d]pyrimidine] the IC50 was 1000 to 10000 nM. In the case of COc1cncc2nc(N3CCOCC3)nc(N3CCN[C@@H](CO)C3)c12 [Example 1005, [(R)-4-(5-Methoxy-2-morpholin-4-yl-pyrido[3,4-d]pyrimidin-4-yl)-piperazin-2-yl]-methanol], the IC50 is reported as 100 to 1000 nM. For COc1cncc2nc(N3CCOCC3)nc(N3CCN[C@@H](COc4ccccc4)C3)c12 [Example 1006, 5-Methoxy-2-morpholin-4-yl-4-((R)-3-phenoxymethyl-piperazin-1-yl)-pyrido[3,4-d]pyrimidine], the IC50 was 100 to 1000 nM. With COc1cncc2nc(N3CCOCC3)nc(N3CCC[C@H](Nc4ccccc4)C3)c12 [Example 1007, [(S)-1-(5-Methoxy-2-morpholin-4-yl-pyrido[3,4-d]pyrimidin-4-yl)-piperidin-3-yl]-phenyl-amine] the IC50 was 1000 to 10000 nM. COc1cncc2nc(N3CCOCC3)nc(N3CCN[C@@H](COc4ccccc4F)C3)c12 [Example 1008, 4-[(R)-3-(2-Fluoro-phenoxymethyl)-piperazin-1-yl]-5-methoxy-2-morpholin-4-yl-pyrido[3,4-d]pyrimidine] gave an IC50 of 100 to 1000 nM.
